From patent US20250290916A1 (Antibody Analytics Limited, priority 2022, published 2025)
Entries after “also recorded” stand apart in the source; their conditions may differ.

What was measured:
IAA CIP system [1] = assay: IAA-inducible CD19 expression in CHO-K1 cells containing both IAA and ABA CIP systems; assay type: cell-based; conditions: CHO-K1 IAA CD19 / ABA CD22 cells, ABA concentration series
Experimental: (§1) CD22 and CD19 expression was measured by flow cytometry and mean fluorescence intensity corresponding to CD22 and CD19 expression was plotted.

ABA CIP system [2] = assay: tagBFP and CD19 reporter expression in CHO-K1 ABA activator cells; assay type: cell-based
Experimental: CD19 expression was detected by flow cytometry analysis and the number of CD19 receptors per cell was quantified using a Quantibrite PE bead fluorescence quantification kit (BD Biosciences). The CD19 receptors per cell for Ramos, Raji and B cells isolated from PBMCs are shown by way of comparison.
(§2) Following this incubation, the cells were analysed for CD19 expression by flow cytometry.
CD19 expression was detected by anti-CD19 staining (Biolegend #302254) and flow cytometry analysis. The number of CD19 receptors per cell was quantified using a Quantibrite PE bead fluorescence quantification kit (BD Biosciences #340495).

ABA CIP system [3] = assay: tagBFP and CD19 reporter expression in HEK293 ABA activator cells; assay type: cell-based; conditions: 1000 μM ABA, 24 hours
CD4+ and CD8+ T cells = assay: Proliferation and IFNγ production of PBMC T cells stimulated with CD3/CD28 Dynabeads; assay type: cell-based, human; conditions: PBMCs from two donors, concentration series, 96 hrs; for IFNγ production: ELISA; for proliferation of CD4+ T cells / proliferation of CD8+ T cells: proliferation dye
Text: One of the main considerations for application of the CIP system in immunology assays using primary human immune cells, is the effect that the small molecules (e,g. IAA) may have on cell viability and normal function. For example, one of the main limitations of one of the rapamycin-CIP systems is the high immunoregulatory effect of rapamycin on immune cells that limits its applicability in immunology assays. The inventors assessed the effect of IAA in the function of immune cells. PBMCs from two donors were stimulated with Human T-Activator CD3/CD28 targeting Dynabeads to stimulate T cell activation and proliferation, in the presence of a increasing concentration series of IAA. T cell proliferation and IFNγ production was analysed 96 hrs post stimulation to determine any negative effects on T cells. The concentration series of IAA was selected to reflect the concentration expected to be used in assays. […] Proliferation of CD4+ (A) and CD8+ (B) T cells was assessed by flow cytometry using a proliferation dye. The results are shown in FIG. 3, IFNγ production was assessed by ELISA (panel C), n=3, graphs report […]+SD.
For example one of the main limitation of one of the rapamycin-CIP system is the high immunoregulatory effect of rapamycin on immune cells that limits its applicability in immunology assays.
Peripheral Blood Mononuclear Cells (PBMCs) from two donors were labelled with eBioscience™ Cell Proliferation Dye eFluor™ 670 (ThermoFisher #65-0840-90). […] The cells were incubated for 96 hrs in a humidified incubator at 37° C./6% CO2 at which point proliferation of CD4+ and CD8+ T cells was assessed by flow cytometry. In parallel, supernatants were collected and the levels of IFNγ was analysed by ELISA (Human IFN-gamma DuoSet ELISA, R&D systems #DY285B).

IAA CIP system [4] = assay: CD19 expression in CHO-K1 IAA activator 10× i-Scel CD19 reporter cells; assay type: cell-based
Text: To test the system in a therapeutically relevant target, a construct expressing CD19 under the control of 10× i-Scel binding sites was introduced into the IAA activator cassette containing CHO-K1 cells and clones isolated. As the purpose of the system is to provide titratable expression of a given receptor (usually a tumour associated antigen) within a biologically relevant range, the CD19 expression was quantified using a Quantibrite bead fluorescence quantification kit which contains multiple bead populations each conjugated with set numbers of fluorophore molecules (PE in this case) per bead. Assuming the fluorophore conjugation to the detection antibody is at a 1:1 ratio (which was confirmed by the manufacture) and antibody binding to the receptor of interest (CD19) occurs at a 1:1 ratio, the number of CD19 receptors per cell can be calculated. By means of comparison, the CD19 expression level of the CD19 positive cells found in peripheral blood mononuclear cells (PBMCs), e.g. B cells, and Ramos cells were calculated in the same experiment.
as §2
CHO-K1 cells containing the IAA activator cassette and a 10× i-Scel CD19 reporter construct were seeded overnight in 96 well plates. […] CD19 expression was assess by flow cytometry and quantified for receptor number per cell. […]

CHO-K1 cells = assay: Cytotoxicity on CHO-K1 cells, eFluor780 fixable viability dye, flow cytometry; assay type: cell-based; conditions: increasing concentrations, 24 hours
Experimental: (§3) Before IAA was used as an expression inducer for the transduced cell lines, it was assessed for any cytotoxic effects on CHO-K1 and HEK293 cells. Cell viability in both HEK293 and CHO-K1 cells was measured by flow cytometry 24 hours post addition of IAA over the concentration range indicated.
(§4) HEK293 and CHO-K1 cells were treated with the indicated concentrations of IAA for 24 hours before being stained with eFluor780 fixable viability dye and analysed by flow cytometry.

ABA CIP system [5] = assay: ABA-inducible CD22 expression in CHO-K1 cells containing both IAA and ABA CIP systems; assay type: cell-based; conditions: CHO-K1 IAA CD19 / ABA CD22 cells, IAA concentration series
Experimental: as §1

HEK293 cells = assay: Cytotoxicity on HEK293 cells, eFluor780 fixable viability dye, flow cytometry; assay type: cell-based; conditions: increasing concentrations, 24 hours
Experimental: as §3, §4

IAA CIP system [6] = assay: EGFP reporter expression in CHO-K1 cells with IAA activator cassette and i-Scel EGFP reporter; assay type: cell-based; conditions: 24 hours
Text: (§5) The levels of expression correlate with the number of i-Scel sites, with negligible induction observed at 1× i-Scel and the highest induction over background observed with the 10× i-Scel sites reporter. […] However, the inventors predict, that the inclusion of higher numbers of i-Scel binding sites in the reporter/TAOI cassette, would result in higher levels of induction of the reporter/TAOI.
(§6) Therefore, the 5× and 10× i-Scel binding site pools for HEK293 and CHO-K1 cells were single cell dilution cloned, and colonies picked from each cell pool and then analysed for induction of expression following IAA treatment. […] The HEK293 and CHO-K1 cells containing the IAA activator cassette and the 10× and 5× i-Scel reporter constructs were seeded overnight in 96 well plates. IAA was added at the indicated concentration and the cells were incubated for a further 24 hours. EGFP expression was detected by flow cytometry analysis.
(§7) The HEK293 and CHO-K1 cells containing the IAA activator cassette and the 10× i-Scel reporter construct were seeded overnight in 96 well plates. IAA was added at the indicated concentrations and the cells were incubated for a further 24 hours. EGFP expression was detected by flow cytometry analysis.
(§8) HEK293 and CHO-K1 cells containing the IAA activator cassette and the EGFP reporter constructs were seeded in 6 well plates. Following overnight incubation, the media was replaced with fresh media containing the indicated concentrations of IAA and the cells incubated for a further 24 hours. EGFP expression was detected using a NovoCyte flow cytometer (ACEA).

IAA CIP system [7] = assay: EGFP reporter expression in HEK293 cells with IAA activator cassette and i-Scel EGFP reporter; assay type: cell-based; conditions: 24 hours
Text: as §5, §6, §7, §8

CD19 = biological target: T1, CD19 (Homo sapiens, UniProt P15391); assay: T cell engager assay, Jurkat NFAT luciferase reporter cells with CHO-K1 IAA or ABA activator CD19 reporter cells; assay type: cell-based
T1 construct: expressed in transfected cells
T1 sequence (P15391 20-556): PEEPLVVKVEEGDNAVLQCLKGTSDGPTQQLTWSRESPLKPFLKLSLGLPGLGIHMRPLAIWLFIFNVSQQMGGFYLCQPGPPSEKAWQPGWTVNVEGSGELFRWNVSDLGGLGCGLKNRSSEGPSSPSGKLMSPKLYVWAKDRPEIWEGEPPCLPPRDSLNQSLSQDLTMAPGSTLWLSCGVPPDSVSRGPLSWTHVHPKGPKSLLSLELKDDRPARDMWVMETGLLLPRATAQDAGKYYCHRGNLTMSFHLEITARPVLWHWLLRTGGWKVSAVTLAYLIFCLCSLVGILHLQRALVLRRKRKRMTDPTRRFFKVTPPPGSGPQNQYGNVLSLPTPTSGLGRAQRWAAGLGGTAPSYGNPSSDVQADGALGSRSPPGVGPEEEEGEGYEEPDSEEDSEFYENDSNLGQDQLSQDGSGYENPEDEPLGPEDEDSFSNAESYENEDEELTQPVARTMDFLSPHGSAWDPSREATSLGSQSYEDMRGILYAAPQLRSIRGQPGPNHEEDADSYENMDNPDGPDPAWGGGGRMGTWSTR
Experimental: This represents a typical assay set up for measuring the effect of a bispecific against cells expressing its target antigen.
NFAT activation was determined by luminescence after 24 hours (48 Hours from assay start) and plotted against CD19 expression quantified by staining with PE anti-CD19 and plotted on a curve generated using Quantibrite PE receptor quantification kit. n=3, graphs report mean±SD.

[8] = CHO-K1 ABA activator cells, 1000 μM ABA, 24 hours

## S-(+)-abscisic acid [ABA]
IAA CIP system [1]
  CD19 expression from the IAA CIP system upon ABA (cross-talk in a single cell line): does not induce expression; also recorded: without ABA inducing IAA-activated CD 19 expression
ABA CIP system [2]; CHO-K1 ABA activator 9×Gal4 UAS CD19 clone, ABA concentration range, 48 hours
  dose dependence of CD19 expression (receptors per cell): dose dependent induction of CD19 expression
ABA CIP system [2]; [8]
  CD19 expression: expression of both tagBFP and CD19 was obtained
  tagBFP expression: expression of both tagBFP and CD19 was obtained
ABA CIP system [3]
  CD19 expression: expression of both tagBFP and CD19 was obtained
  tagBFP expression: expression of both tagBFP and CD19 was obtained
CD4+ and CD8+ T cells
  IFNγ production: minimal effects
  proliferation of CD4+ T cells: minimal effects
  proliferation of CD8+ T cells: minimal effects
IAA CIP system [4]; CHO-K1 IAA activator CD19 reporter cells, 1000 μM ABA, 24 hours
  CD19 expression from the IAA system (cross-talk): does not induce expression

## O=C(O)Cc1c[nH]c2ccccc12 [IAA, indole-3-acetic acid]
CHO-K1 cells
  cell viability (percentage of cells which do not take up the dye): no decrease in cell viability was observed
ABA CIP system [5]
  CD22 expression from the ABA system upon IAA (cross-talk in a single cell line): does not induce expression; also recorded: without IAA inducing ABA-activated CD22 expression
HEK293 cells
  cell viability (percentage of cells which do not take up the dye): no decrease in cell viability was observed
ABA CIP system [2]; CHO-K1 ABA activator CD19 reporter cells, 1000 μM IAA, 24 hours
  CD19 expression from the ABA CIP system (cross-talk): does not induce expression
IAA CIP system [6]; CHO-K1 10× i-Scel EGFP clone
  dose dependence of EGFP expression: dose-dependent induction of EGFP expression
IAA CIP system [6]; CHO-K1 stable pools, 1×, 5×, 10× i-Scel sites
  induction of EGFP expression: induction of expression of EGFP can clearly be seen
IAA CIP system [6]; CHO-K1 stable pools
  additional induction of EGFP at 1000 μM compared to 500 μM: no evidence of additional induction
IAA CIP system [7]; HEK293 10× i-Scel EGFP clone
  dose dependence of EGFP expression: dose-dependent induction of EGFP expression
IAA CIP system [7]; HEK293 stable pools, 1×, 5×, 10× i-Scel sites
  induction of EGFP expression: induction of expression of EGFP can clearly be seen
IAA CIP system [7]; HEK293 stable pools
  additional induction of EGFP at 1000 μM compared to 500 μM: no evidence of additional induction
CD4+ and CD8+ T cells
  IFNγ production: little or no effect
  proliferation of CD4+ T cells: little or no effect
  proliferation of CD8+ T cells: little or no effect
IAA CIP system [4]; CHO-K1 IAA activator 10× i-Scel CD19 clone, IAA concentration range, 72 hours
  dose dependence of CD19 expression (receptors per cell): a dose dependent range of CD19 expression has been achieved

## Blincyto: CD19×CD3 targeting bispecific T cell engager
CD19; Blincyto 10 ng/mL and 25 ng/mL, luminescence after 24 hours
  NFAT luciferase signal against number of CD19 receptors: concurrent increase in luciferase signal
CD19; Blincyto 25 ng/mL versus 10 ng/mL
  NFAT luciferase signal at the higher concentration compared to the lower: higher but remains IAA and ABA dose dependent
